# Source: patent publication US5914319A, “Antithrombotic agents” (Eli Lilly and Company, priority 1995, dated 1999)
# Where a name gives a salt, the structure may show the parent alone.
# What was measured:
# Format in all cases: biochemical
# [1] = system: Human plasma; assay: Human plasma anticoagulation, thrombin time (TT); settings: concentration required to double the thrombin time, linear extrapolation
# Procedure: (§1) Dog plasma and rat plasma is obtained from conscious mixed-breed hounds (either sex, Hazelton-LRE, Kalamazoo, Mich., U.S.A.) or from anesthetized male Sprague-Dawley rats (Harlan Sprague-Dawley, Inc., Indianapolis, Ind., U.S.A.) by venipuncture into 3.8 percent citrate. Fibrinogen is prepared from in-date ACD human blood as the fraction I-2 according to previous procedures and specifications. […] Human fibrinogen is also purchased as 98 percent pure/plasmin free from American Diagnostica, Greenwich, Conn. Coagulation reagents ACTIN, Thromboplastin, and Human plasma are from Baxter Healthcare Corp., Dade Division, Miami, Fla. Bovine thrombin from Parke-Davis ([…], Mich.) is used for coagulation assays in plasma.
# (§2) Coagulation assay procedures are as previously described. […] A CoAScreener coagulation instrument (American LABor, Inc.) is used for all coagulation assay measurements. The prothrombin time (PT) is measured by adding 0.05 mL saline and 0.05 mL Thromboplastin-C reagent to 0.05 mL test plasma. The activated partial thromboplastin time (APTT) is measured by incubation of 0.05 mL test plasma with 0.05 mL Actin reagent for 120 seconds followed by 0.05 mL CaCl2 (0.02M). The thrombin time (TT) is measured by adding 0.05 mL saline and 0.05 mL thrombin (10 NIH units/mL) to 0.05 mL test plasma. The compounds of Formula I are added to human or animal plasma over a wide range of concentrations to determine prolongation effects on the APTT, PT, and TT assays. Linear extrapolations are performed to estimate the concentrations required to double the clotting time for each assay.
# [2] = system: Human plasma; assay: Human plasma anticoagulation, activated partial thromboplastin time (APTT); settings: concentration required to double the APTT, linear extrapolation
# Procedure: as §1, §2
# [3] = system: Human plasma; assay: Human plasma anticoagulation, prothrombin time (PT); settings: concentration required to double the PT, linear extrapolation
# Procedure: as §1, §2
Structure (SMILES),Human Plasma Anticoagulation 2× Clotting time (ng/mL) TT [1],Human Plasma Anticoagulation 2× Clotting time (ng/mL) APTT [2],Human Plasma Anticoagulation 2× Clotting time (ng/mL) PT [3]
"Cl.N=C(N)c1ccc(CCCNC(=O)C2CCCN2C(=O)C2NCCC3CCCCC32)cc1 (stereo not drawn) [Example 32, 1-Piq-Pro-p-NHCH2 CH2 CH2 --C6 H4 C(=NH)NH2.HCl]","3,100 ng/mL","28,500 ng/mL","47,800 ng/mL"
"Cl.Nc1cc(CCNC(=O)[C@@H]2CCCN2C(=O)[C@@H](CC2CCCCC2)NCC(=O)O)ccn1 [Example 76, HO2 CCH2 -D-Cha-Pro-4-NHCH2 CH2 -2-aminopyridine.HCl]",29 ng/mL,490 ng/mL,560 ng/mL
"N=C(N)N1CCC(CCNC(=O)[C@@H]2CCCN2C(=O)[C@@H](CC2CCCCC2)NCC(=O)O)CC1 [Example 57, HO2 CCH2 -D-Cha-Pro-4-NHCH2 CH2 -1-amidinopiperidine.HCl]",14 ng/mL,360 ng/mL,340 ng/mL
"N=C(N)c1ccc(CCNC(=O)[C@@H]2CCCN2C(=O)[C@@H]2NCC[C@@H]3CCCC[C@@H]32)cc1 [Example 28, 1-Piq-Pro-p-NHCH2 CH2 --C6 H4 C(=NH)NH2.2HCl]",520 ng/mL,"8,100 ng/mL","8,300 ng/mL"
"N=C(N)NCc1ccc(CNC(=O)[C@@H]2CCCN2C(=O)[C@H](N)Cc2ccccc2)cc1 [Example 9, D-Phe-Pro-p-NHCH2 C6 H4 CH2 NHC(NH)NH2.2TFA]","> 91,000 ng/mL",–,–
"N=C(N)c1cccc(CCCNC(=O)[C@@H]2CCCN2C(=O)[C@@H]2NCC[C@@H]3CCCC[C@@H]32)c1 [Example 33, 1-Piq-Pro-m-NHCH2 CH2 CH2 --C6 H4 C(=NH)NH2.HCl]","18,900 ng/mL","59,300 ng/mL","70,900 ng/mL"
"Cl.O=C(O)CN[C@H](CC1CCCCC1)C(=O)N1CCC[C@H]1C(=O)NCC1=CCNCC1 [Example 58, HO2 CCH2 -D-Cha-Pro-4-NHCH2 -3,4-dehydropiperidine.HCl]",710 ng/mL,"14,300 ng/mL","11,400 ng/mL"
"Cl.N=C(N)c1ccc(CNC(=O)[C@@H]2CCCN2C(=O)[C@@H](CC2CCCCC2)NCC(=O)O)c(F)c1 [Example 71, HO2 CCH2 -D-Cha-Pro-4-NHCH2 -3-F-benzamidine.HCl]",1 ng/mL,89 ng/mL,150 ng/mL
"N=C(N)c1ccc(CNC(=O)[C@@H]2CCCN2C(=O)[C@@H](CCC2CCCCC2)NCC(=O)O)cc1 [Example 88, HOOCCH2 -D-hCha-Pro-p-NHCH2 C6 H4 C(NH)NH2.HCl]",4 ng/mL,100 ng/mL,200 ng/mL
"Nc1ccc(CNC(=O)[C@@H]2CCCN2C(=O)[C@@H](CC2CCCCC2)NCC(=O)O)cc1 [Example 62, HO2 CCH2 -D-Cha-Pro-4-NHCH2 C6 H4 NH2.HCl]",54 ng/mL,–,–
"Cl.O=C(O)CN[C@H](CC1CCCCC1)C(=O)N1CCC[C@H]1C(=O)NCCCC1=CCNCC1 [Example 60, HO2 CCH2 -D-Cha-Pro-4-NHCH2 CH2 CH2 -3,4-dehydropiperidine.HCl]","3,200 ng/mL","22,200 ng/mL","77,700 ng/mL"
"N=C(N)Nc1cccc(CCNC(=O)[C@@H]2CCCN2C(=O)[C@@H]2NCC[C@@H]3CCCC[C@@H]32)c1 [Example 41, D-1-Piq-Pro-m-NHCH2 CH2 C6 H4 NHC(NH)NH2.2HCl]","82,200 ng/mL","> 91,000 ng/mL","> 91,000 ng/mL"
"N=C(N)Nc1cccc(CNC(=O)[C@@H]2CCCN2C(=O)[C@@H]2NCC[C@@H]3CCCC[C@@H]32)c1 [Example 40, D-1-Piq-Pro-m-NHCH2 C6 H4 NHC(NH)NH2.2HCl]","35,100 ng/mL","> 91,000 ng/mL","> 91,000 ng/mL"
"CCS(=O)(=O)N[C@H](Cc1ccccc1)C(=O)N1CCC[C@H]1C(=O)NCc1cccc(C(=N)N)c1 [Example 24, EtSO2 -D-Phe-Pro-m-NHCH2 --C6 H4 C(=NH)NH2.HCl]","1,000 ng/mL","25,900 ng/mL","25,000 ng/mL"
"Cl.NC(N)=NC/C=C/CNC(=O)[C@@H]1CCCN1C(=O)[C@H](N)Cc1ccccc1 (relative stereo) [Example 8, D-Phe-Pro-NHCH2 -trans-CH=CHCH2 NHC(NH)NH2.HCl]",130 ng/mL,–,–
